Consider 15 molecules from ChEMBL document CHEMBL3045062, “Potent in vitro and in vivo antitubercular activity of certain newly synthesized indophenazine 1,3,5-trisubstituted pyrazoline derivatives bearing benzofuran” (Med Chem Res, 2011).

Values after ≈ are worked out from the molar mass of the structure shown.

For this assay, the system named is Mycobacterium tuberculosis. Briefly: Antitubercular activity against Isoniazid,rifampicin,gatifloxacin-resistant Mycobacterium tuberculosis after 60 days. It is filed as functional.
The term MIC50 denotes an inhibitory concentration at the 50% level, which refers to growth in some studies and to a panel of isolates in others. For orientation: MIC90 means the lowest concentration that inhibits either 90% of growth or 90% of the strains tested, depending on the study. A lower MIC90 goes with higher susceptibility. The molecule `O=C(Cn1c2ccccc2c2nc3ccccc3nc21)N1N=C(c2cc3cc(O)ccc3o2)CC1c1ccccc1O` (stereo not given) registered an MIC50 of 10.3 µg/mL (≈ 18.7 µM) and an MIC90 of 12.6 µg/mL (≈ 22.7 µM).

In the case of `COc1ccccc1C1CC(c2cc3cc(O)ccc3o2)=NN1C(=O)Cn1c2ccccc2c2nc3ccccc3nc21` (stereo not given), the MIC50 is 10.7 µg/mL (≈ 18.8 µM) and the MIC90 was determined as 13.6 µg/mL (≈ 24 µM).

As for `CN(C)c1ccc(C2CC(c3cc4cc(O)ccc4o3)=NN2C(=O)Cn2c3ccccc3c3nc4ccccc4nc32)cc1` (stereo not given), the MIC50 came out at 5 µg/mL (≈ 8.61 µM) and the MIC90 is 8.98 µg/mL (≈ 15.5 µM).

`CC(=O)c1ccccc1C1CC(c2cc3cc(O)ccc3o2)=NN1C(=O)Cn1c2ccccc2c2nc3ccccc3nc21` (stereo not given) came in with an MIC50 of 9.56 µg/mL (≈ 16.5 µM) and an MIC90 of 7.45 µg/mL (≈ 12.9 µM).

`O=C(Cn1c2ccccc2c2nc3ccccc3nc21)N1N=C(c2cc3cc(O)ccc3o2)CC1c1cccc([N+](=O)[O-])c1` (stereo not given): the MIC50 is 1.2 µg/mL (≈ 2.06 µM) and the MIC90 was found to be 2 µg/mL (≈ 3.43 µM).

The molecule `COc1ccc(C2CC(c3cc4cc(O)ccc4o3)=NN2C(=O)Cn2c3ccccc3c3nc4ccccc4nc32)c(O)c1` (stereo not given) gave an MIC50 of 7.8 µg/mL (≈ 13.4 µM) and an MIC90 of 13.1 µg/mL (≈ 22.4 µM).

The molecule `O=C(Cn1c2ccccc2c2nc3ccccc3nc21)N1N=C(c2cc3cc(O)ccc3o2)CC1c1ccc(O)cc1` (stereo not given) displayed an MIC50 of 9.86 µg/mL (≈ 17.8 µM) and an MIC90 of 11.2 µg/mL (≈ 20.3 µM).

For the molecule `O=C(Cn1c2ccccc2c2nc3ccccc3nc21)N1N=C(c2cc3cc(O)ccc3o2)CC1c1ccc(Cl)cc1` (stereo not given), the MIC50 worked out at 5.23 µg/mL (≈ 9.14 µM) and the MIC90 is 8.66 µg/mL (≈ 15.1 µM).

In turn, `O=C(Cn1c2ccccc2c2nc3ccccc3nc21)N1N=C(c2cc3cc(O)ccc3o2)CC1c1ccccc1Cl` (stereo not given) returned an MIC50 of 4.68 µg/mL (≈ 8.18 µM) and an MIC90 of 8.61 µg/mL (≈ 15.1 µM).

`O=C(Cn1c2ccccc2c2nc3ccccc3nc21)N1N=C(c2cc3cc(O)ccc3o2)CC1c1ccccc1[N+](=O)[O-]` (stereo not given) displayed an MIC50 of 3.24 µg/mL (≈ 5.56 µM) and an MIC90 of 7.2 µg/mL (≈ 12.4 µM).

The molecule `COc1ccc(C2CC(c3cc4cc(O)ccc4o3)=NN2C(=O)Cn2c3ccccc3c3nc4ccccc4nc32)cc1` (stereo not given) had an MIC50 of 11.5 µg/mL (≈ 20.3 µM) and an MIC90 of 15.4 µg/mL (≈ 27.1 µM).

`O=C(Cn1c2ccccc2c2nc3ccccc3nc21)N1N=C(c2cc3cc(O)ccc3o2)CC1c1ccco1` (stereo not given) yielded an MIC50 of 6.4 µg/mL (≈ 12.1 µM) and an MIC90 of 9.78 µg/mL (≈ 18.5 µM).

Molecule `O=C(Cn1c2ccccc2c2nc3ccccc3nc21)N1N=C(c2cc3cc(O)ccc3o2)CC1/C=C/c1ccccc1` (stereo not given) yielded an MIC50 of 5.6 µg/mL (≈ 9.94 µM) and an MIC90 of 11.3 µg/mL (≈ 20.1 µM).

`COc1c(N2CCNC(C)C2)c(F)cc2c(=O)c(C(=O)O)cn(C3CC3)c12` (stereo not given) [GATIFLOXACIN] gave an MIC50 of 14.7 µg/mL (≈ 39.2 µM) and an MIC90 of 28.5 µg/mL (≈ 75.8 µM).

For the molecule `CO[C@H]1/C=C/O[C@@]2(C)Oc3c(C)c(O)c4c(O)c(c(/C=N/N5CCN(C)CC5)c(O)c4c3C2=O)NC(=O)/C(C)=C\C=C\[C@H](C)[C@H](O)[C@@H](C)[C@@H](O)[C@@H](C)[C@H](OC(C)=O)[C@@H]1C` [RIFAMPIN], the MIC50 was 4.21 µg/mL (≈ 5.12 µM) and the MIC90 was 7.37 µg/mL (≈ 8.96 µM).
